Source: patent US12357612B2, “Prophylactic or therapeutic agent for cancer” (TOHOKU UNIVERSITY, priority 2019, dated 2025)

Assays:
[1] = tested on: model mice of colorectal cancer (AOM/DSS); assay: Model mice of colorectal cancer (AOM/DSS), oral administration; type: in vivo, ICR mice; details: for colon length: shortening in placebo group versus control group, FIG. 1B; for tumor area in the colon / ratio of tumor area in the colon / number of tumors having a diameter of more than 2 mm: versus placebo group; for tumor area in the colon: FIG. 1A; for ratio of tumor area in the colon: FIG. 2A; for number of tumors having a diameter of more than 2 mm: FIG. 2B
Procedure: Model mice of colorectal cancer were prepared using azoxymethane (AOM; manufactured by Wako Pure Chemical Industries, Ltd.) and dextran sulfate sodium (DSS, manufactured by MP Biomedicals). Specifically, 5-week-old male ICR mice (produced by CLEA Japan) were first acclimated and bred for 1 week. At 6 weeks of age, the mice were randomly divided in a control group and 5 colorectal cancer groups (placebo group, Present Compound #1[1] group, Present Compound #1[10] group, Present Compound #2[1] group, and Present Compound #2[10] group), and 10 (mg/kg body weight) of AOM was intraperitoneally administered to the colorectal cancer groups. Seven days later, the mice were allowed to freely drink 2.5% (w/v) DSS for 1 week, and then tap water for 14 days. This administration of DSS was performed for […] to prepare model mice of colorectal cancer. When the above AOM was intraperitoneally administered (that is, at 6 weeks of age), physiological saline solutions containing 1 (mg/kg body weight/day) and 10 (mg/kg body weight/day) of the Present Compound #1 were orally administered for 70 consecutive days thereafter to the Present Compound #1(1) group and the Present Compound #1(10) group, respectively, physiological saline solutions containing 1 (mg/kg body weight/day) and 10 (mg/kg body weight/day) of the Present Compound #2 were orally administered for 70 consecutive days thereafter to the Present Compound #2(1) group and the Present Compound #2(10) group, respectively, and a physiological saline solution was orally administered for 70 consecutive days thereafter to the placebo group. In addition, to the control group, a physiological saline solution was orally administered at 6 weeks of age for 70 consecutive days thereafter. All mice were sacrificed and the colons were harvested immediately after the end of the third cycle. The colons were photographed in full length and the colon length (see FIG. 1B), as well as the tumor area in the colon (see FIG. 1A), the ratio of tumor area in the colon (see FIG. 2A), and the number of tumors having a diameter of more than 2 mm (see FIG. 2B) were measured. Note that, for the tumors, the elevated lesions that were thought to contain cancer were visually observed in the colon (large intestine), and the area of these elevated lesions (that is, the tumors) and the total colon area were calculated by NIH Image J version 1.51 (US National Institutes of Health, MD, http://imagej.nih.gov/ij/index.html). The ratio of tumor area in the colon was calculated based on the formula “(elevated lesion area/total colon area)×100”.
Student's t-test was used for the comparison between two groups, and Dunnet's test or Tukey's test was used for the comparison between three groups. The survival rate (see FIG. 3) was evaluated by a log-rank test using the Kaplan-Meier survival curve. JMP version 14 (manufactured by SAS Institute) was used for statistical analysis. For all test results, p-values less than 0.05 were considered statistically significant.

[2] = tested on: colorectal cancer cell line HCT116; assay: Cell migration test; type: cell-based, human; details: 50 μM, 48 hours, HCT116, 20% FBS as attractant; versus absence of compound; FIG. 4
Procedure: Cells of the human colorectal cancer cell line HCT116 (obtained from ATCC) were cultured and maintained in a DMEM (Dulbecco's Modified Eagle Medium) culture solution (manufactured by Sigma-Aldrich) containing 10% fetal bovine serum (FBS) (manufactured by Biowest) and 1% penicillin-streptomycin (manufactured by Thermo Fisher Science) under the conditions of 5% CO2/20% O2 and 37° C.
7.5×10^4 cells of the colorectal cancer cell line HCT116 were seeded in each well of the Corning Fluoroblok 24-Multiwell Insert Systems (pore size: 8.0 μm) (manufactured by Corning), and cultured for 48 hours in FBS-free DMEM culture solution or FBS-free DMEM culture solution containing 50 μM of the Present Compound #2. Note that a DMEM culture solution containing 20% FBS, which is an attractant, was added to the chamber at the bottom of the plate. The migrating cells that had passed through the membrane on the lower surface of the cell culture insert were stained using a Diff-Quik kit (manufactured by Sysmex), the membrane was air-dried, and then the number of cells was measured in three fields of view using a phase-contrast microscope.
Student's t-test was used for the comparison between two groups, and Dunnet's test or Tukey's test was used for the comparison between three groups. The survival rate (see FIG. 3) was evaluated by a log-rank test using the Kaplan-Meier survival curve. […]

[3] = 1 mg/kg body weight/day orally for 70 consecutive days
[4] = 10 mg/kg body weight/day orally for 70 consecutive days

| Compound | colon length [1, 3] | tumor area in the colon [1, 3] | colon length [1, 4] | tumor area in the colon [1, 4] | ratio of tumor area in the colon [1, 4] | number of tumors having a diameter of more than 2 mm [1, 4] | survival ([1]; 10 mg/kg body weight/day orally, 4 out of 8 mice died in the placebo group, FIG. 3) | cell migration level [2] | ratio of tumor area in the colon [1, 3] | number of tumors having a diameter of more than 2 mm [1, 3] |
| --- | --- | --- | --- | --- | --- | --- | --- | --- | --- | --- |
| COc1cc(COc2ccc3[nH]cc(CC(=O)O)c3c2)cc(OC)c1 [Present Compound #2, 5-(3,5-dimethoxybenzyloxy)-3-indoleacetic acid] | shortening was suppressed | smaller | shortening was suppressed | smaller | smaller | smaller | all 8 mice survived | lower |  |  |
| O=C(CC(C(=O)O)c1c[nH]c2ccccc12)c1ccc(F)cc1F (centres unmarked) [Present Compound #1, 4-(2,4-difluorophenyl)-2-(1H-indole-3-yl)-4-oxo-butanoic acid] |  |  | shortening was suppressed | smaller | smaller | smaller |  |  | smaller | smaller |
